Measurements as given in a compilation of properties of binary mixtures (doi:10.1016/j.molliq.2020.114573).

Test: xn = mol fraction of the nth substance listed
Settings: 101.3 kPa

CC[n+]1ccn(C)c1C.O=S(=O)([N-]S(=O)(=O)C(F)(F)F)C(F)(F)F + CC1COC(=O)O1
viscosity [mPa·s]
Settings	x1 = 0.1025	x1 = 0.203	x1 = 0.3078	x1 = 0.3994	x1 = 0.5149	x1 = 0.5825	x1 = 0.7004	x1 = 0.8032	x1 = 0.8903	x1 = 1
293.15 K	4.428	6.93	10.56	14.82	23.06	28.58	40.63	54.1	67.4	88.1
298.15 K	3.939	6.07	9.11	12.62	19.36	23.79	33.34	43.9	54.2	69.8
303.15 K	3.529	–	7.94	10.86	16.94	–	27.76	36.2	44.35	56.4
308.15 K	3.181	4.77	6.98	9.45	14.61	17.55	23.4	30.24	36.77	46.1
313.15 K	2.886	4.278	6.18	8.29	12.57	15.29	–	25.57	30.87	38.26
318.15 K	2.631	3.864	5.52	–	–	13.22	17.6	–	26.2	32.15
323.15 K	–	3.506	4.96	6.54	–	11.45	–	18.92	22.48	27.31
328.15 K	2.218	–	4.485	5.86	8.27	9.99	13.53	–	19.46	23.43
333.15 K	2.05	2.932	4.078	–	7.31	8.77	11.81	14.88	17.38	20.28
338.15 K	1.901	2.699	–	4.8	6.49	7.77	10.37	13.07	15.46	17.69
343.15 K	1.769	2.494	3.419	–	5.82	–	9.15	11.54	–	15.62
348.15 K	–	2.312	3.149	4.011	5.23	6.15	–	10.17	12.07	13.94

CC1COC(=O)O1 (configuration not stated) + CC[n+]1ccn(C)c1C.O=S(=O)([N-]S(=O)(=O)C(F)(F)F)C(F)(F)F
x2 = 0
Settings	viscosity [mPa·s]
293.15 K	2.746
298.15 K	2.476
303.15 K	2.246
313.15 K	1.879
318.15 K	1.73
323.15 K	1.6
328.15 K	1.486
333.15 K	1.385
338.15 K	1.294
343.15 K	1.213

CC1COC(=O)O1 (configuration not stated) + FC(S(=O)(=O)[N-]S(=O)(=O)C(F)(F)F)(F)F.C(CCC)N1C(=[N+](C=C1)C)C
x2 = 0
Settings	viscosity [mPa·s]
298.15 K	2.476
303.15 K	2.246
308.15 K	2.049
313.15 K	1.879
318.15 K	1.73
323.15 K	1.6
328.15 K	1.486
333.15 K	1.385
338.15 K	1.294
348.15 K	1.14

CCCCn1cc[n+](C)c1C.O=S(=O)([N-]S(=O)(=O)C(F)(F)F)C(F)(F)F + CC1COC(=O)O1
viscosity [mPa·s]
Settings	x1 = 0.0902	x1 = 0.193	x1 = 0.2934	x1 = 0.4039	x1 = 0.4996	x1 = 0.6034	x1 = 0.6989	x1 = 0.8107	x1 = 0.8987	x1 = 1
288.15 K	5.24	9.07	14.94	24.89	37.46	54.7	–	104.9	137	178.8
293.15 K	–	7.79	12.54	20.44	30.16	–	59.4	80.2	103.2	132.9
298.15 K	4.073	6.76	10.65	–	24.69	34.79	47.12	62.7	79.6	101.1
303.15 K	3.637	–	9.15	14.34	–	28.47	38.01	–	62.6	–
308.15 K	3.272	–	7.95	12.21	17.68	23.64	31.16	–	50.2	62.2
313.15 K	–	4.661	6.97	–	15.21	19.88	25.91	33.28	40.89	–
318.15 K	2.693	–	–	9.16	–	17.36	21.81	–	33.77	–
323.15 K	2.463	3.77	5.49	8.04	11.16	15.04	18.72	23.39	28.28	34.04
328.15 K	–	3.421	4.92	7.12	9.65	12.98	16.46	19.94	23.94	28.58
333.15 K	2.088	3.121	4.439	6.34	8.42	11.22	14.32	–	20.47	–
338.15 K	1.933	2.86	–	5.69	–	9.78	12.45	15.42	17.95	20.79
343.15 K	1.796	2.633	3.671	5.13	–	–	10.85	13.47	15.87	18.12
348.15 K	1.675	2.433	3.363	4.658	5.82	7.58	9.51	11.82	13.95	16.01

CC1COC(=O)O1 (configuration not stated) + CC[n+]1ccn(C)c1.O=S(=O)([N-]S(=O)(=O)C(F)(F)F)C(F)(F)F
x2 = 0
Settings	viscosity [mPa·s]
288.15 K	3.063
293.15 K	2.746
298.15 K	2.476
308.15 K	2.049
313.15 K	1.879
323.15 K	1.6
328.15 K	1.486
333.15 K	1.385
343.15 K	1.213
348.15 K	1.14

CCCC[n+]1ccn(C)c1.O=S(=O)([N-]S(=O)(=O)C(F)(F)F)C(F)(F)F + CC1COC(=O)O1
x1 = 1
Settings	viscosity [mPa·s]
293.15 K	63.1
298.15 K	50.5
303.15 K	41.13
313.15 K	28.4
318.15 K	24.03
323.15 K	20.54
333.15 K	15.91
338.15 K	14.02
343.15 K	12.37
348.15 K	10.91
